What was measured:
female NOD mice [1] = test: Circulating IgG anti-BSA antibodies by particle concentration fluoroimmunoassay (Example 7); format: in vivo, mouse; conditions: same treatment; over 34 weeks
Experimental: (§1) A control group (13 mice) was injected with incomplete Freund's Adjuvant only and a further control group (13 mice) was untreated. A booster injection of the same treatment material was given intraperitoneally one week later.
Circulating IgG anti-BSA antibodies were measured over the 34 weeks of the experiment, using the particle concentration fluoroimmunoassay described by the inventors in International Patent Application No. PCT/CA93/000304.

[2] = system: NOD mice lymph node cells; test: Immunization and T cell proliferation assay, NOD mice (Example 11); format: in vivo, mouse; conditions: 50 μg sc in complete Freund's adjuvant, recall with 1 μg antigen in vitro
Experimental: (§2) Recombinant truncated p69 was prepared by expression of a portion of the cDNA of IS4. The cDNA was cut a few nucleotides downstream of the 3' terminal of exon 3 and was subcloned into the PET™ expression system according to the manufacturer's recommendations (Novagen Inc., Madison, Wis.). The truncated protein contains 100 amino acids and is essentially identical with the murine molecule.
(§3) Antigens were injected subcutaneously in complete Freunds' adjuvant, and local lymph nodes and blood samples were collected 10 days later. Triplicate cultures of 2×10^5 lymph node cells were incubated for 5 days in serum-free HGM-af Medium™ (Promo Cell, Heidelberg, Germany) in the presence of 1 μg of protein or synthetic peptide as recall antigen. Six hours before harvesting, 1 μCi ^3 H-thymidine (6.7 Ci/mmol) was added to the wells, and isotope incorporation was analysed by liquid scintillation counting. Values are expressed as mean counts per minute ± standard deviation (mean cpm ± SD).
(§4) Young male NOD mice (H2^G7, IE^-/-) received a single immunization with truncated p69 (as encoded by IS4 cDNA) in complete adjuvant, and antibody and T cell proliferative responses were measured 8-10 days later. MHC disparate C57/B6 (H2^b, IE^-/-) and SJL (H2^s, IE^-/-) mice served as non-diabetes prone controls (FIG. 31).

[3] = system: PBMC from healthy subjects; test: T cell proliferation assay with BSA and rec-p69, healthy subjects (Example 3); format: cell-based, human; conditions: with or without IL2
Experimental: (§5) Cultures containing 5×10^4 cells were incubated for 7 days at 37° C. in serum-free HL-1 medium (Ventrex, Portland, Me.) containing 1 μg antigen per well for test samples.
(§6) Control cultures were treated with 1 μg human, chick or horse albumin or an equivalent volume of control recombinant antigen prepared from lysates of E. coli carrying wild type plasmid.
(§7) After an overnight pulse of 1 μci ^3 H thymidine, cultures were harvested and submitted to liquid scintillation counting. Proliferation was expressed as cpm ^3 HTdR×10^-3.
(§8) A parallel set of cell cultures was incubated with the same test antigens or control agents in the presence of 10 U human IL2.

C57/B6 and SJL mice = test: Serum antibodies to BSA and p69 by fluoroimmunoassay, control mice (Example 11); format: in vivo, mouse; conditions: 50 μg sc in complete Freund's adjuvant
Experimental: (§9) Male non-obese diabetic mice (NOD, 6-7 weeks old) were immunized with 50 μg BSA, ABBOS-short peptide ([…]), recombinant truncated p69 or p69 T cell epitope peptide `Tep69` ([…]) (10). Recombinant truncated p69 was prepared by expression of a portion of the cDNA of IS4. The cDNA was cut a few nucleotides downstream of the 3' terminal of exon 3 and was subcloned into the PET™ expression system according to the manufacturer's recommendations (Novagen Inc., Madison, Wis.).
(§10) Antigens were injected subcutaneously in complete Freunds' adjuvant, and local lymph nodes and blood samples were collected 10 days later. […] Six hours before harvesting, 1 μCi ^3 H-thymidine (6.7 Ci/mmol) was added to the wells, and isotope incorporation was analysed by liquid scintillation counting. Values are expressed as mean counts per minute ± standard deviation (mean cpm ± SD).
(§11) Serum antibodies to BSA and p69 were measured by particle concentration fluoroimmunoassay, as described (11). […] Bound fluorescence was read by an automated ScreenMachine™ instrument (IDEXX, Portland, Me.). Data are expressed in kilofluorescence units relative to a standard mouse serum analyzed in parallel within each assay plate.
(§12) Young male NOD mice (H2^G7, IE^-/-) received a single immunization with truncated p69 (as encoded by IS4 cDNA) in complete adjuvant, and antibody and T cell proliferative responses were measured 8-10 days later. […]

[4] = system: PBMC from a child with recent onset diabetes; test: Proliferative response, patient cells (Example 6); format: cell-based, human; conditions: 1 μg antigen per culture, 7 days
Experimental: Replicate cultures of PBMC from a child with recent onset diabetes and a healthy control subject were stimulated with P2267, Tep69, Herpes simplex antigen or a mixture of P2267 and Tep69 (1 μg antigen per culture) as described in Example 3. After 2 days of incubation, one patient cell culture and one healthy control culture were harvested for RNA extraction and measurement of IL2 receptor transcripts by RT-PCR, as described by Cheung et al., (1991), J. Biol. Chem., v. 266, pp. 8667-8670. PCR was used to amplify a 739 bp fragment of IL2R coding sequence from patient and control and also a 430 bp region in the human β-actin gene of patient.
Remaining cultures were incubated for a further 5 days and used to determine proliferative responses as described in Example 3.

NOD mice = test: Serum antibodies to BSA and p69 by fluoroimmunoassay, NOD mice (Example 11); format: in vivo, mouse; conditions: 50 μg sc in complete Freund's adjuvant
Experimental: as §9, §10, §11, §12

[5] = system: C57/B6 and SJL mice lymph node cells; test: Immunization and T cell proliferation assay, non-diabetes prone control mice (Example 11); format: in vivo, mouse; conditions: 50 μg sc in complete Freund's adjuvant
Experimental: as §2, §3, §4

[6] = system: PBMC cultures from patients with recent onset diabetes; test: Proliferative responses to antigen mixtures (Example 5); format: cell-based, human; conditions: patient PBMC, no IL2 (FIG. 9A)
Experimental: Proliferation assays were conducted as described in Example 3. Control cultures were treated with 1 μg horse albumin or with the peptides P2240, P2269, P2270 or H1029. Results with control antigens were similar and data were pooled.
Responses were expressed as mean of triplicate cultures; variations were <12%. Responses in the absence of IL2 are shown in FIG. 9, Panel A. Parallel cultures were treated with the same antigens and antigen mixtures in the presence of 10U IL2.

[7] = system: PBMC from children with recent onset diabetes; test: T cell proliferation assay with BSA and rec-p69, patients (Example 3); format: cell-based, human; conditions: 1 μg antigen
Experimental: as §5, §6, §7, §8

[8] = system: PBMC from children with recent onset diabetes; test: Proliferative response of PBMC to peptide fragments in the presence of IL2 (Example 4); format: cell-based, human; conditions: patient PBMC
Experimental: as §5, §7
Control cultures were stimulated with 1 μg ovalbumin or horse or human albumin. […] A 4 h. pulse with 1 μCi ^3 H thymidine was used.
Each synthetic peptide was tested with PBMC from at least 3 children with recent onset diabetes. Stimulation Index=^3 H Thymidine Incorporation in peptide-stimulated culture in cpm divided by Thymidine incorporation in control culture in cpm.
Peptides corresponding to stretches of the amino acid sequence of human p69 were also synthesised and the proliferative response to patient PBMC cultures to these peptides were similarly tested, in the presence of IL2.

female NOD mice [9] = test: IDDM development after immunotherapy with BSA or ABBOS in adjuvant (Example 7); format: in vivo, mouse; conditions: 150 μg BSA or 50 μg ABBOS in incomplete Freund's Adjuvant sc at 5 weeks, ip booster one week later; up to 9 months
Experimental: as §1
IDDM development was followed by testing for urine glucose and when urine glucose was detected, blood glucose was then determined.

Question: With bovine serum albumin [BSA] as the substance, how does the anti-BSA antibody response (female NOD mice [1]) read?
Answer: The anti-BSA antibody response was “massive antibody response”.

Question: What about the “T cell proliferative response after immunisation” value [2] of the same substance?
Answer: The value was “vigorous B- and T cell responses”.

Question: And the “proliferative response of samples from healthy subjects” value [3]?
Answer: The value was “no significant proliferative response”.

Question: And the “antibody response after immunisation (anti-p69 or anti-BSA)” value (C57/B6 and SJL mice)?
Answer: The value was “vigorous B- and T cell responses”.

Question: And the “proliferation of patient cells” value [4]?
Answer: Its value is 6740±480 cpm.

Question: And the “antibody response after immunisation (anti-p69 or anti-BSA)” value (NOD mice)?
Answer: The value was “vigorous B- and T cell responses”.

Question: And the “T cell proliferative response after immunisation” value [5]?
Answer: The value was “vigorous B- and T cell responses”.

Question: And the “PBMC proliferation in the absence of IL2” value [6]?
Answer: The value was “gave PBMC proliferation in the absence of IL2”.

Question: And the “proliferative response of patient samples” value ([7]; absence of IL2)?
Answer: The value was “marked proliferative response”.

Question: And the “proliferative response of patient samples” value ([7]; presence of 10 U IL2)?
Answer: Its value is “increased response”.

Question: What about the “PBMC proliferative response” value [8] of the same substance?
Answer: Its value is “significantly higher than responses to control antigens or peptides”.

Question: What about the “development of IDDM” value (female NOD mice [9]) of the same substance?
Answer: Its value is “complete prevention of IDDM”.
